Entries after “also recorded” stand apart in the source; their conditions may differ. Bridges are numbered along the chain shown (N, C = ends).

Data set [1] relates to DRG neurons. The experiment in a line: NGF-mediated neurite outgrowth of DRG neurons, metal ions. The conditions noted are these: 50 and 100 μM. The data set is classed as cell-based, chick. The procedure:
Dissosiated cells enriched for sensory neurons were prepared from ED8 chick DRG as described (Dostaler, S. M. et al. Characterization of a distinctive motif of the low molecular weight neurotrophin receptor that modulates NGF-mediated neurite growth. Eur. J. Neurosci. 8, 870-879 (1996)). Neurons were seeded at a density of 800-1000 cells/well in Ham's F-12 containing 5% FCS and NGF at 10 pM into wells of Terasaki plates treated with polyysine. The cells were incubated with the indicated additives at 37° C. in a 5% CO2 atmosphere. The cells on the entire lower horizontal surface of the well were scored for neurite growth at 18-20 hours using an inverted microscope fitted with phase contrast optics. A neurite was scored if its caliber from the origin to terminal was constant and its length was equal to or greater than 1.5 cell body diameters. Neurite growth was corrected for background (no NGF).

The target of a further data set is T1, TrkA.
T1 construct: Receptor cross-linking studies were performed on PC12 rat pheochromocytoma cells; endogenous in cells; host or cells: PC12 rat pheochromocytoma cells (ATCC CRL 1721)
Kind of data set: Affinity cross-linking of 125I-NGF to TrkA on PC12 cells. The data set is classed as binding, rat. The conditions noted are these: 200 μM; result in words. How it is done:
The ability of the peptides under study to interfere with binding of NGF to NGF receptors was evaluated by analysis of inhibition of the chemical cross-linking of ^251 I-NGF to the common neurotrophin receptor p75 (Chao, J. Neurobiol. 25:1373-1385 (1994)) and the specific NGF receptor TrkA (Barbacid, J. Neurobiol. 25: 1386-1403 (1994)). Immunoprecipitation and polyacrylamide gel electrphoresis of cross linked receptors allowed identification of both receptors, as shown in FIG. 7A. […] At concentrations of 200 μM, neither R11(l) nor R11(m) were able to inhibit greater than 50% of the observed ^125 I-labelling.
The ability of the peptides derived from the 68-58/108-110 region of NGF to antagonize NGF interaction with the p75 and TrkA receptors was determined The peptides tested were bicyclic (BC) 68-58/108-110, cyclic (C) 68-58/108-110, and linear (L) 68-58/108-110, each of which are illustrated in FIGS. 2 and 5D
Receptor cross-linking studies were performed on PC12 rat pheochromocytoma cells (ATCC CRL 1721; Greene et al., Proc. Natl. Acad. Sci. USA 73: 2424-2432 (1976)) which were maintained in RPMI1640 (Gibco) supplemented with 10% fetal calf serum (Gibco). […]

The test system of data set [2] is DRG neurons. Kind of data set: Survival of chick DRG neurons at 24 hours. Format: cell-based. The conditions noted are these: 500 μM.
Another data set concerns TrkA receptor. The experiment in a line: Inhibition of TrkA phosphorylation by R11 in PC12 cells (Example 3). The data set is classed as cell-based, rat. The procedure: Referring to FIG. 7C, the ability of R11 to influence TrkA phosphorylation was determined by incubating 10^7 PC12 cells (prepared as described above) in one mL HKR buffer with 50 ng NGF and the indicated concentrations of peptides for 15 min at 37° C. The cells were isolated by centrifugation, solubilized in lysis buffer and the TrkA receptor isolated as described above. The TrkA immunoprecipitated was dissociated in SDS reducing sample buffer and electrophoresed using a 6% polyacrylamide gel. The gel was then transferred to PVDF membrane (BioRad), probed with horseradish peroxidase-conjugated anti phosphotyrosine (RC20; Transduction) and developed using ECL (Amersham). All procedures were carried out according to the manufacturers' instructions.

T1 sequence (P01139 122-239): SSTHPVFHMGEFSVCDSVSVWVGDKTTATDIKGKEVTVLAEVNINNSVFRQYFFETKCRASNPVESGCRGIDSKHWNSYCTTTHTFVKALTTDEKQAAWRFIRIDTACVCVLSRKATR

On to `[Zn+2]` [Zn^2+], for which the NGF-induced neurite extension entry in the data set on DRG neurons [1] is given as “inhibited neurite extension”.
For “NH2 -Cys-Gly-Ser-Glu-Val-Pro-Asn-Ser-Ala-Arg-Cys-Cys-Val-Cys-OH (H-CGSEVPNSARCCVC-OH; disulfide 1-14, 11-12) [R11, bicyclic peptide of NGF residues 68-58/108-110, two disulfide bonds]”, the “Covalent attachment of 125I-NGF to receptor (TrkA)” value in the data set with TrkA is “effectively prevented the covalent attachment”. Further, in the data set with DRG neurons [2], the “Survival of neurons at 24 hours” value is given as “not influenced”. In addition, in the data set on TrkA receptor (200 μM, 50 ng NGF, 15 min at 37° C., PC12), the “NGF-induced TrkA phosphorylation” value is “abolished; also recorded: blocked”. In the data set on TrkA receptor (no NGF), the “Basal TrkA phosphorylation” value is “no influence”.

The record behind these values is patent US6291247A, “Methods of screening for factors that disrupt neurotrophin conformation and reduce neurotrophin biological activity” (priority 1996, dated 2001).
